Source: patent publication US5516525A, “Vitamin D derivative feed compositions and methods of use” (University of Georgia Research Foundation, Inc., priority 1994, dated 1996)
“And” between values parts separate entries of the source, which are not always exact repeats. Identical values can stand only once.

What was measured:
tibial dyschondroplasia = details: chickens, dietary level; cited from earlier work
[1] = blood plasma total calcium and dialyzable phosphorus; details: in words, Exp 1
Experimental: (§1) Ten newly hatched birds were randomly placed in each section of the Petersime batteries until the birds were nine days old. The measurements described below were calculated on a pen basis; all statistical analyses were conducted on pen averages. Blood samples were taken by cardiac puncture with heparinized syringes from one randomly chosen bird from each pen on the ninth day before weighing the birds.

phytate phosphorus = assay: phytate (IP4, IP5, IP6) in feces, ferric chloride and HPLC procedures; assay type: in vivo, chicken (Petersen X Arbor Acre cockerels)
[2] = 9-day body weight, feed consumption and gain:feed (Example 1); details: in words
Experimental: Newly hatched Petersen X Arbor Acre cockerels obtained from a commercial hatchery were used. Animals were housed in electrically heated Petersime battery brooders with wire-mesh floors located in a room in which the temperature was maintained at 22° C., fluorescent lights were on 24 hours each day in the room and the cages, and sunlight was present during the day from large windows. No attempt was made to limit the natural production of vitamin D3. Feed and water were available to the chickens at all times.
as §1
At nine days of age, pen body weights were obtained for all birds and their feed consumption was recorded. […] Briefly, using a three week old chicken as the reference animal, a score of zero indicates normal cartilage which is narrow with little irregularities. […] Deep irregularities are apparent. A score of three indicates a large mass of cartilage in the proximal end of the tibia. The birds were also scored for phosphorus deficient rickets at the same time they were scored for tibial dyschondroplasia. Chickens which had normal proliferating prehypertrophied zone and a lengthened metaphyseal primary spongiosa were classified as phosphorus deficient rickets. The left tibia was removed for bone ash determination on the fat-free bone.

bone ash = bone ash of left tibia (Example 1); details: in words
Text: The left tibia was removed for bone ash determination on the fat-free bone.

[3] = test system: phosphorus deficient rickets; assay: phosphorus deficient rickets (Example 1); details: in words, Exp 1
Text: The birds were also scored for phosphorus deficient rickets at the same time they were scored for tibial dyschondroplasia. Chickens which had normal proliferating prehypertrophied zone and a lengthened metaphyseal primary spongiosa were classified as phosphorus deficient rickets.
Ri is an abbreviation for rickets incidence.

[4] = test system: conversion of 25(OH)D3 to 1,25(OH)2 D3; details: chickens made acidotic; cited from earlier work

Row | SMILES | tibial dyschondroplasia (effect of dietary factor) (tibial dyschondroplasia) | blood plasma phosphorus [1] | Feces excreted (phytate phosphorus; in vivo) | IP5 excretion, percent of total phytin phosphorus (phytate phosphorus; in vivo) | IP6 excretion, percent of total phytin phosphorus (phytate phosphorus; in vivo) | IP6 phytate phosphorus in feces by HPLC (phytate phosphorus; in vivo) | Phytate phosphorus retention, FeCl3 (phytate phosphorus; in vivo) | Phytate phosphorus retention, HPLC (phytate phosphorus; in vivo) | Phytin phosphorus retained (100 - total excreted) (phytate phosphorus; in vivo) | Total phytate phosphorus in feces by HPLC (phytate phosphorus; in vivo) | Total phytin phosphorus excreted (phytate phosphorus; in vivo) | amount of phosphorus in the feces (phytate phosphorus; in words, Exp 1) | nine day weight ([2]; Example 1) | gain:feed ratio ([2]; Exp 1) | bone ash (bone ash) | incidence of phosphorus-deficient rickets [3] | conversion of 25(OH)D3 to 1,25(OH)2 D3 [4]
1 | O.O=P([O-])([O-])O.[Na+].[Na+] [P, Na2 HPO4 H2 O] | accentuate the development of the lesions | increased | 451 and 602 and 606 | 5.76% and 2.70% and 6.87% | 46.92% and 37.06% and 46.00% | 3.99 mg/g and 3.03 mg/g and 3.68 mg/g | 47 and 68 and 51 | 47 and 60 and 46 | 46.7% and 59.5% and 45.9% | 4.54 mg/g and 3.32 mg/g and 4.35 mg/g | 53.4% and 40.6% and 54.4% | approximately the same | increased nine day weights | increased | increased | decreased | –
2 | Cl.N [ammonium chloride] | – | – | – | – | – | – | – | – | – | – | – | – | – | – | – | – | reduced conversion
